The text below walks through data of patent US7968577B2 (Bristol-Myers Squibb Company, priority 2006, dated 2011).

Usually Ki stands for the dissociation constant of the complex between target and ligand, obtained from inhibition or displacement. A higher Ki goes with weaker binding.

This test concerns the target T1, human full-length glucocorticoid receptor (Homo sapiens, UniProt P04150).
T1 construct: recombinantly expressed human full-length glucocorticoid receptor; purchased PanVera Co., Madison, Wis; P2816
T1 sequence (P04150 1-777): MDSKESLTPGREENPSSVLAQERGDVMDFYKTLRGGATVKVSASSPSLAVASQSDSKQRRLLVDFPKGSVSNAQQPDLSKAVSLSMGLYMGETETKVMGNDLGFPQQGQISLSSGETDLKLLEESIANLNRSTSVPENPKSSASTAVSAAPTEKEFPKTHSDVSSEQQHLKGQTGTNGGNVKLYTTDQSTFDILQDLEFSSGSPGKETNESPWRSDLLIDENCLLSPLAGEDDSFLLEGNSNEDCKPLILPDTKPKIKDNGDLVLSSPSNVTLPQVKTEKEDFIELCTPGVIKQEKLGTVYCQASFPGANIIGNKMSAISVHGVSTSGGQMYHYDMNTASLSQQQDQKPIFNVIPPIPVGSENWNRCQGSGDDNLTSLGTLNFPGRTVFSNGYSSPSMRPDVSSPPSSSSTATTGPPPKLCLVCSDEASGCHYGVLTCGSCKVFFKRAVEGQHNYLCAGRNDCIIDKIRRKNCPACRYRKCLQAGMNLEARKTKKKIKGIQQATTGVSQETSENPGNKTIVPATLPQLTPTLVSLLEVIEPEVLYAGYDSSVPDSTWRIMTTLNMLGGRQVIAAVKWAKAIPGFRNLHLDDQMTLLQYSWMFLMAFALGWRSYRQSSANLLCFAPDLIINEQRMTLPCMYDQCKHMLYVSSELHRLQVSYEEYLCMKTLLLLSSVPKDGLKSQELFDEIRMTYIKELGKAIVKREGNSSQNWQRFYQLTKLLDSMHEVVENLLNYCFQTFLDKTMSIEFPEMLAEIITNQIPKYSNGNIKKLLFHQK
The test is described as follows: Glucocorticoid Receptor Binding Assay (II), fluorescence polarization competitor kit (Fluormone GS1). The note with it: GR Binding Assay (II). How it is done: Glucocorticoid Receptor Binding Assay (II)^b
In order to measure the binding of compounds on the glucocorticoid receptor a commercially available kit was used (Glucocorticoid receptor competitor assay kit, PanVera Co., Madison, Wis., P2816). Briefly, a cell lysate containing recombinantly expressed human full-length glucocorticoid receptor was mixed with a fluorescently labeled glucocorticoid (1 nM Fluormone GS1) in the presence or absence of test compound. After one hour at room temperature, the fluorescence polarization (FP) of the samples were measured.
A general note: Fluorescence polarisation rises when a labelled molecule tumbles more slowly, as on binding a larger partner.

In the case of `COc1ccc(C(c2ccccc2)C(C)(C)C(=O)Nc2nccs2)cc1F` (centres unmarked) [Example 282, 3-(3-fluoro-4-(methyloxy)phenyl)-2,2-dimethyl-3-phenyl-N-1,3-thiazol-2-ylpropanamide], the affinity, expressed as Ki, was 29.5 nM. This lies in the double-digit nanomolar range. Molecule `COc1ccc(C(c2ccccc2)C(C)(C)C(=O)Nc2nccs2)cc1F` (centres unmarked) [Example 283, 3-(3-fluoro-4-(methyloxy)phenyl)-2,2-dimethyl-3-phenyl-N-1,3-thiazol-2-ylpropanamide] registered an inhibitory constant (Ki) of 9.2 nM.

The molecule `COc1ccc(C(c2ccccc2)C(C)(C)C(=O)Nc2nncs2)cc1F` (centres unmarked) [Example 284, 3-(3-fluoro-4-(methyloxy)phenyl)-2,2-dimethyl-3-phenyl-N-1,3,4-thiadiazol-2-ylpropanamide] yielded an inhibition constant Ki of 26.9 nM. In the case of `COc1ccc(C(c2ccccc2)C(C)(C)C(=O)Nc2nncs2)cc1F` (centres unmarked) [Example 285, 3-(3-fluoro-4-(methyloxy)phenyl)-2,2-dimethyl-3-phenyl-N-1,3,4-thiadiazol-2-ylpropanamide], the Ki stood at 13.8 nM. Compared with the last molecule, the Ki is about 1.9-fold lower. Molecule `COc1ccc([C@@H](c2ccccc2)C(C)(C)C(=O)Nc2nccs2)cc1Br` [Example 286, (3R)-3-(3-bromo-4-(methyloxy)phenyl)-2,2-dimethyl-3-phenyl-N-1,3-thiazol-2-ylpropanamide] registered a Ki of 46.7 nM. This Ki lies about 3.4-fold higher than the previous one.

For `COc1ccc([C@H](c2ccccc2)C(C)(C)C(=O)Nc2nncs2)cc1Br` [Example 287, (3S)-3-(3-bromo-4-(methyloxy)phenyl)-2,2-dimethyl-3-phenyl-N-1,3,4-thiadiazol-2-ylpropanamide], the Ki is 14.7 nM. As for `COc1ccc([C@@H](c2ccccc2)C(C)(C)C(=O)Nc2nccs2)cc1C#N` [Example 296, (3R)-3-(3-Cyano-4-(methyloxy)phenyl)-2,2-dimethyl-3-phenyl-N-1,3-thiazol-2-ylpropanamide], the affinity, expressed as Ki, was 45.7 nM. In the case of `CC(C)(C(=O)Nc1nccs1)C(c1ccccc1)c1ccc(Cl)cc1` (centres unmarked) [Example 306, 3-(4-chlorophenyl)-2,2-dimethyl-3-phenyl-N-1,3-thiazol-2-ylpropanamide] it was 26.3 nM; in that of `CC(C)(C(=O)Nc1nccs1)C(c1ccccc1)c1ccc(F)cc1` (centres unmarked) [Example 307, 3-(4-fluorophenyl)-2,2-dimethyl-3-phenyl-N-1,3-thiazol-2-ylpropanamide], 15.5 nM. `CC(C)(C(=O)Nc1nccs1)C(c1ccccc1)c1ccc(F)cc1` (centres unmarked) [Example 308, 3-(4-fluorophenyl)-2,2-dimethyl-3-phenyl-N-1,3-thiazol-2-ylpropanamide] displayed a Ki of 35 nM. On to `CC(C)(C(=O)Nc1nccs1)C(c1ccccc1)c1ccc(F)cc1` (centres unmarked) [Example 309, 3-(4-fluorophenyl)-2,2-dimethyl-3-phenyl-N-1,3-thiazol-2-ylpropanamide], for which the affinity corresponds to a Ki of 76.4 nM. Take `CC(C)(C(=O)Nc1nccs1)C(c1ccccc1)c1ccc(C#N)cc1` (centres unmarked) [Example 310, 3-(4-cyanophenyl)-2,2-dimethyl-3-phenyl-N-1,3-thiazol-2-ylpropanamide]: the Ki came out at 26.6 nM.

Regarding `CC(C)(C(=O)Nc1nccs1)C(c1ccccc1)c1cccc(Br)c1` (centres unmarked) [Example 311, 3-(3-bromophenyl)-2,2-dimethyl-3-phenyl-N-1,3-thiazol-2-ylpropanamide], affinity was put at a Ki of 17.5 nM. As for `CC(C)(C(=O)Nc1nncs1)C(c1ccccc1)c1cccc(Br)c1` (centres unmarked) [Example 312, 3-(3-bromophenyl)-2,2-dimethyl-3-phenyl-N-1,3-thiadiazol-2-ylpropanamide], the figure is 19.9 nM; as for `CC(C)(C(=O)Nc1nccs1)C(c1ccccc1)c1cccc(C#N)c1` (centres unmarked) [Example 313, 3-(3-cyanophenyl)-2,2-dimethyl-3-phenyl-N-1,3-thiazol-2-ylpropanamide], 57.6 nM; as for `CC(C)(C(=O)Nc1nccs1)C(c1ccccc1)c1ccc(Br)c(F)c1` (centres unmarked) [Example 314, 3-(4-bromo-3-fluorophenyl)-2,2-dimethyl-3-phenyl-N-1,3-thiazol-2-ylpropanamide], 13.2 nM. For the molecule `CC(C)(C(=O)Nc1nncs1)C(c1ccccc1)c1ccc(Br)c(F)c1` (centres unmarked) [Example 315, 3-(4-bromo-3-fluorophenyl)-2,2-dimethyl-3-phenyl-N-1,3,4-thiadiazol-2-ylpropanamide], the Ki worked out at 10.9 nM.

With `CC(C)(C(=O)Nc1nccs1)C(C)(c1ccccc1)c1ccccc1` [Example 316, 2,2-dimethyl-3,3-diphenyl-N-1,3-thiazol-2-ylbutanamide], the Ki came to 472 nM. `CC(C)(C(=O)Nc1nccs1)C(c1ccccc1)c1ccc(Br)cc1` (centres unmarked) [Example 317, 3-(4-bromophenyl)-2,2-dimethyl-3-phenyl-N-1,3-thiazol-2-ylpropanamide]: the affinity corresponds to a Ki of 23.2 nM. In the case of `CC(C)(C(=O)Nc1nncs1)C(c1ccccc1)c1ccc(Br)cc1` (centres unmarked) [Example 318, 3-(4-bromophenyl)-2,2-dimethyl-3-phenyl-N-1,3,4-thiadiazol-2-ylpropanamide] it was 12.8 nM. Molecule `CC(C)(C(=O)Nc1nccs1)[C@@H](c1ccccc1)c1cccc(O)c1` [Example 327, 3-(3-hydroxyphenyl)-2,2-dimethyl-3-phenyl-N-1,3-thiazol-2-ylpropanamide] displayed an inhibitory constant (Ki) of 90.9 nM. As for `CC(C)(C(=O)Nc1nccs1)[C@H](c1ccccc1)c1cccc(O)c1` [Example 328, 3-(3-hydroxyphenyl)-2,2-dimethyl-3-phenyl-N-1,3-thiazol-2-ylpropanamide], the figure is 17.8 nM; as for `Cc1csc(NC(=O)C(C)(C)[C@@H](c2ccccc2)c2ccc(O)cc2)n1` [Example 329, (3S)-3-(4-hydroxyphenyl)-2,2-dimethyl-N-(4-methyl-1,3-thiazol-2-yl)-3-phenylpropanamide], 16.8 nM; as for `Cc1csc(NC(=O)C(C)(C)[C@H](c2ccccc2)c2ccc(O)cc2)n1` [Example 330, (3R)-3-(4-hydroxyphenyl)-2,2-dimethyl-N-(4-methyl-1,3-thiazol-2-yl)-3-phenylpropanamide], 169 nM. Take `Cc1cnc(NC(=O)C(C)(C)[C@@H](c2ccccc2)c2ccc(O)cc2)s1` [Example 331, (3S)-3-(4-hydroxyphenyl)-2,2-dimethyl-N-(5-methyl-1,3-thiazol-2-yl)-3-phenylpropanamide]: the Ki is 18.8 nM.

`Cc1cnc(NC(=O)C(C)(C)[C@H](c2ccccc2)c2ccc(O)cc2)s1` [Example 332, (3R)-3-(4-hydroxyphenyl)-2,2-dimethyl-N-(5-methyl-1,3-thiazol-2-yl)-3-phenylpropanamide] displayed a Ki of 204 nM.

On to `CC(C)(C(=O)NC1CCC1)[C@@H](c1ccccc1)c1ccc(O)cc1` [Example 333, (3S)-N-cyclobutyl-3-(4-hydroxyphenyl)-2,2-dimethyl-3-phenylpropanamide], for which affinity was put at a Ki of 392 nM. In the case of `CC(C)(C(=O)NC1CCC1)[C@H](c1ccccc1)c1ccc(O)cc1` [Example 334, (3R)-N-cyclobutyl-3-(4-hydroxyphenyl)-2,2-dimethyl-3-phenylpropanamide] it was 395 nM; in that of `CC(C)(C(=O)NC1CCCC1)[C@H](c1ccccc1)c1ccc(O)cc1` [Example 336, (3R)-N-cyclopentyl-3-(4-hydroxyphenyl)-2,2-dimethyl-3-phenylpropanamide], 504 nM. In the case of `CC(C)(C(=O)N1CCOCC1)[C@@H](c1ccccc1)c1ccc(O)cc1` [Example 337, 4-((1S)-2,2-dimethyl-3-(4-morpholinyl)-3-oxo-1-phenylpropyl)phenol] it was 2090 nM; in that of `CCOC(=O)c1csc(NC(=O)C(C)(C)[C@@H](c2ccccc2)c2ccc(O)cc2)n1` [Example 338, ethyl 2-(((3S)-3-(4-hydroxyphenyl)-2,2-dimethyl-3-phenylpropanoyl)amino)-1,3-thiazole-4-carboxylate], 11.8 nM.

`CC(C)(C(=O)Nc1ccccn1)[C@@H](c1ccccc1)c1ccc(O)cc1` [Example 341, (3S)-3-(4-hydroxyphenyl)-2,2-dimethyl-3-phenyl-N-2-pyridinylpropanamide] showed an inhibition constant (Ki) of 175 nM. `CC(C)(C(=O)Nc1ncns1)[C@@H](c1ccccc1)c1ccc(O)cc1` [Example 342, (3S)-3-(4-hydroxyphenyl)-2,2-dimethyl-3-phenyl-N-1,2,4-thiadiazol-5-ylpropanamide] showed a Ki of 8.1 nM. Against the preceding molecule, the Ki is about 22-fold lower. In the case of `CC(C)(C(=O)Nc1nncs1)C(c1ccccc1)c1ccc(O)cc1F` (centres unmarked) [Example 344, 3-(2-fluoro-4-hydroxyphenyl)-2,2-dimethyl-3-phenyl-N-1,3,4-thiadiazol-2-ylpropanamide], the Ki turned out to be 43.2 nM.

For `CC(C)(C(=O)Nc1nccs1)C(c1ccccc1)c1ccc(O)c(F)c1` (centres unmarked) [Example 346, 3-(3-fluoro-4-hydroxyphenyl)-2,2-dimethyl-3-phenyl-N-1,3-thiazol-2-ylpropanamide], the Ki was 16 nM.
